# Laboratory results from patent publication US7491703B2, “Tetrapeptide regulating blood glucose level in diabetes mellitus” (“Access Bioscience” CJSC, priority 2003, dated 2009).
# Residues, ends and D or L forms follow the SMILES beside them.
# Legend:
# [1] = test system: rats with alloxan diabetes; assay: Course of alloxan diabetes in rats, prophylaxis and treatment variant (Example 3); assay type: in vivo, rat
# Procedure: The experiment was carried out on 15 white mongrel male rats with the average body weight 375±35 g. The animals were divided randomly into 2 groups. Control animals were administered once a day intravenously with 0.3 ml of 0.9% NaCl solution, while the main group animals were administered with Lys-Glu-Asp-Trp-NH2 [SEQ ID NO:1] tetrapeptide in dose of 3 μg (in 0.3 ml of 0.9% NaCl solution) per rat during 7 days. After that all the animals were subject to single intravenous administration of 1 ml of alloxan solution (“Spofa”) in dose 35 mg/kg. Lys-Glu-Asp-Trp-NH2 [SEQ ID NO:1] tetrapeptide had been administered during 3 days following alloxan administration. After that […] were subject to the second Lys-Glu-Asp-Trp-NH2 [SEQ ID NO:1] tetrapeptide course from 18 day till day 28 (total 11 days) in the same dose.
# [2] = test system: rats with alloxan diabetes; assay: Glucose tolerance test (sugar curve) in alloxan diabetes rats (Example 6); assay type: in vivo, rat; details: for glucose concentration in blood, glucose tolerance test: in mg/dL
# Procedure: The study was conducted on 13 male rats, enrolled in the previous tests (treatment variants—44 days after completion of tetrapeptide Lys-Glu-Asp-Trp-NH2 [SEQ ID NO:1] administration). 7 healthy rats with the same body weight constituted a separate group. All the animals were administered intravenously with 1 ml of 2% glucose solution, after that glucose concentration in their blood was estimated.
# [3] = 30 min after glucose administration
# [4] = 60 min after glucose administration
# [5] = 120 min after glucose administration
smiles,measurement,setting,value
"NCCCC[C@H](N)C(=O)N[C@@H](CCC(=O)O)C(=O)N[C@@H](CC(=O)O)C(=O)N[C@@H](Cc1c[nH]c2ccccc12)C(N)=O [Lys-Glu-Asp-Trp-NH2, lysyl-glutamyl-aspartyl-tryptophane amid] (H-KEDW-NH2)",survived animals,[1]; 40th day after alloxan administration (control 57.1%),75%
same,Glucose Concentration in blood,[1]; 5 days after alloxan administration,247.3 ± 17.2 mg %
same,Glucose Concentration in blood,"[1]; 7 days from the onset of tetrapeptide administration (1 course, 3 μg per rat), healthy rats before alloxan",94.0 ± 0.8 mg %
same,Glucose Concentration in blood,[1]; 14 days after alloxan administration,261.5 ± 39.5 mg %
same,Glucose Concentration in blood,[1]; 18 days after alloxan administration (start of 2nd course),159.0 ± 32.6 mg %
same,Glucose Concentration in blood,[1]; 28 days after alloxan administration (end of 2nd course),77.3 ± 1.3 mg %
same,Glucose Concentration in blood,[1]; 33 days after alloxan administration,90.7 ± 5.2 mg %
same,Glucose Concentration in blood,[1]; 40 days after alloxan administration,107.7 ± 6.4 mg %
same,effect on blood glucose level,[1]; administration to healthy animals,did not lead to the decrease of blood glucose level
same,decrease of blood glucose level as compared to the controls,[1]; after one course,22-30%
same,blood glucose level,"[1]; after the second course, 28th, 33rd, 40th day",complete normalisation of the blood glucose level
same,rats with severe form of diabetes mellitus,[1]; control: 5 rats out of 7,2 rats out of 8
same,Glucose Concentration in blood,"[1]; initial level, before peptide",76.8 ± 1.1 mg %
same,glucose concentration compared to the initial level (100%),[2]; 5 min after glucose administration,142.9%
same,"glucose concentration in blood, glucose tolerance test",[2]; 5 min after glucose administration (1 ml of 2% i.v.),301.2 ± 10.5
same,glucose concentration compared to the initial level (100%),[2]; [3],97.3%
same,"glucose concentration in blood, glucose tolerance test",[2]; [3],205.1 ± 11.8
same,glucose concentration compared to the initial level (100%),[2]; [4],95.6%
same,"glucose concentration in blood, glucose tolerance test",[2]; [4],201.5 ± 13.2
same,glucose concentration compared to the initial level (100%),[2]; [5],77.9%
same,"glucose concentration in blood, glucose tolerance test",[2]; [5],164.2 ± 12.8
same,"glucose concentration in blood, glucose tolerance test","[2]; initial level, 44 days after course completion",210.8 ± 9.3
